Molecular target: T1, LCK (Homo sapiens, UniProt P06239)
T1 construct: LCK KD GST (225-509); GST
Test: LCK-Homogeneous Time Resolved Fluorescent (HTRF) Kinase Assay
Type: biochemical
Conditions: not given
Experimental: LCK-Homogeneous Time Resolved Fluorescent (HTRF) Kinase Assay:
The LCK HTRF assay begins with LCK in the presence of ATP phosphorylating the biotinylated peptide Gastrin. The reaction incubates for 90 min. To quench the assay detection reagents are added which both stop the reaction by diluting out the enzyme and chelating the metals due to the presence of EDTA. Once the detection reagents are added the assay incubates for 30 min to allow for equilibration of the detection reagents.
Buffer conditions are as follows: 50 mM HEPES pH 7.5, 50 mM NaCl, 20 mM MgCl, 5 mM MnCl, 2 mM DTT, 0.05% BSA.
The assay is quenched and stopped with 160 μL of detection reagent. Detection reagents are as follows: Buffer made of 50 mM Tris, pH 7.5, 100 mM NaCl, 3 mM EDTA, 0.05% BSA, 0.1% Tween20.
The assay plate is read in either a Discovery or a RubyStar.

T1 sequence (P06239 225-509): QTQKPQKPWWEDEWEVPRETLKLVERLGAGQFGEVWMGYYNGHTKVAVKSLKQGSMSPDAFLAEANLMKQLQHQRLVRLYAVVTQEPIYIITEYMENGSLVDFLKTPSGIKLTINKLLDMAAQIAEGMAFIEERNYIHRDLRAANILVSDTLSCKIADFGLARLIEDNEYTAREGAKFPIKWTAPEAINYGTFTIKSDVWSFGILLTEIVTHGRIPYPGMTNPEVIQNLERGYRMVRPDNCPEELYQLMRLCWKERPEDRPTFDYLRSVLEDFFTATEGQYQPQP

IC50, < 1 µM:
COc1cc(Nc2ncc3c(=O)n(-c4c(C)cccc4C)c4nc5ccccc5n4c3n2)cc(OC)c1OCCCN1CCN(C)CC1 [No. 9, 2-((3,5-bis(methyloxy)-4-((3-(4-methyl-1-piperazinyl)propyl)oxy)phenyl)amino)-6-(2,6-dimethylphenyl)pyrimido[5′,4′:5,6]pyrimido[1,2-a]-benzimidazol-5(6H)-one]
COc1cccc(-n2c(=O)c3cnc(Nc4ccc(N5CCN(C)CC5)cc4)nc3n3c4ccccc4nc23)c1 [No. 81, 6-(3-(methyloxy)phenyl)-2-((4-(4-methyl-1-piperazinyl)phenyl)amino)pyrimido[5′,4′:5,6]-pyrimido[1,2-a]benzimidazol-5(6H)-one]
CN1CCN(c2ccc(Nc3ncc4c(=O)n(-c5c(Cl)cccc5Cl)c5nc6ccccc6n5c4n3)cc2)CC1 [No. 67, 6-(2,6-dichlorophenyl)-2-((4-(4-methyl-1-piperazinyl)phenyl)amino)pyrimido[5′,4′:5,6]-pyrimido[1,2-a]benzimidazol-5(6H)-one]
Cc1cccc(-n2c(=O)c3cnc(Nc4ccc(N5CCN(C)CC5)cc4)nc3n3c4ccccc4nc23)c1 [No. 80, 6-(3-methylphenyl)-2-((4-(4-methyl-1-piperazinyl)-phenyl)amino)pyrimido[5′,4′:5,6]pyrimido[1,2-a]-benzimidazol-5(6H)-one]
COc1cc(Nc2ncc3c(=O)n(-c4c(C)cccc4C)c4nc5ccccc5n4c3n2)ccc1N1CCN(C)CC1 [No. 19, 6-(2,6-dimethylphenyl)-2-((3-(methyloxy)-4-(4-methyl-1-piperazinyl)phenyl)amino)-pyrimido[5′,4′:5,6]pyrimido[1,2-a]benzimidazol-5(6H)-one]

Same assay, conditions: read-out: activity in the LCK-HTRF Kinase Assay

IC50, < 1 µM:
Cc1cccc(C)c1-n1c(=O)c2cnc(Nc3cccc(C(=O)NCCN(C)C)c3)nc2n2c3ccccc3nc12 [No. 65, N-(2-(dimethylamino)ethyl)-3-((6-(2,6-dimethylphenyl)-5-oxo-5,6-dihydropyrimido[5′,4′:5,6]pyrimido[1,2-a]-benzimidazol-2-yl)amino)benzamide]
Cc1cccc(C)c1-n1c(=O)c2cnc(Nc3ccc(N4CCN(C(C)C)CC4)c(Cl)c3)nc2n2c3ccccc3nc12 [No. 41, 2-((3-chloro-4-(4-(1-methylethyl)-1-piperazinyl)-phenyl)amino)-6-(2,6-dimethylphenyl)-pyrimido[5′,4′:5,6]pyrimido[1,2-a]benzimidazol-5(6H)-one]
Cc1cccc(C)c1-n1c(=O)c2cnc(Nc3ccc(N4CCN(C)CC4)c(Cl)c3)nc2n2c3ccccc3nc12 [No. 40, 2-((3-chloro-4-(4-methyl-1-piperazinyl)phenyl)-amino)-6-(2,6-dimethylphenyl)pyrimido[5′,4′:5,6]-pyrimido[1,2-a]benzimidazol-5(6H)-one]
COCCN1CCN(c2ccc(Nc3ncc4c(=O)n(-c5c(C)cccc5C)c5nc6ccccc6n5c4n3)cc2)CC1 [No. 54, 6-(2,6-dimethylphenyl)-2-((4-(4-(2-(methyloxy)ethyl)-1-piperazinyl)phenyl)amino)pyrimido[5′,4′:5,6]-pyrimido[1,2-a]benzimidazol-5(6H)-one]
COc1cc(Nc2ncc3c(=O)n(-c4c(C)cccc4C)c4nc5ccccc5n4c3n2)cc(OCCN2CCN(C)CC2)c1OC [No. 11, 2-((3,4-bis(methyloxy)-5-((2-(4-methyl-1-piperazinyl)ethyl)oxy)phenyl)amino)-6-(2,6-dimethylphenyl)pyrimido[5′,4′:5,6]pyrimido[1,2-a]-benzimidazol-5(6H)-one]
Cc1cccc(C)c1-n1c(=O)c2cnc(Nc3ccc(OCCN4CCCCC4)cc3)nc2n2c3ccccc3nc12 [No. 27, 6-(2,6-dimethylphenyl)-2-((4-((2-(1-piperidinyl)-ethyl)oxy)phenyl)amino)pyrimido[5′,4′:5,6]-pyrimido[1,2-a]benzimidazol-5(6H)-one]
COc1cc(Nc2ncc3c(=O)n(-c4c(C)cccc4C)c4nc5ccccc5n4c3n2)ccc1OCCC1CCN(C)CC1 [No. 4, 6-(2,6-dimethylphenyl)-2-((3-(methyloxy)-4-((2-(1-methyl-4-piperidinyl)ethyl)oxy)phenyl)amino)-pyrimido[5′,4′:5,6]pyrimido[1,2-a]benzimidazol-5(6H)-one]
COc1cc(Nc2ncc3c(=O)n(-c4c(C)cccc4C)c4nc5ccccc5n4c3n2)cc(OCCCN2CCN(C)CC2)c1OC [No. 21, 2-((3,4-bis(methyloxy)-5-((3-(4-methyl-1-piperazinyl)propyl)oxy)phenyl)amino)-6-(2,6-dimethylphenyl)pyrimido[5′,4′:5,6]pyrimido[1,2-a]-benzimidazol-5(6H)-one]
Cc1cccc(C)c1-n1c(=O)c2cnc(Nc3ccc(N4CCN(C(C)C)CC4)c(F)c3)nc2n2c3ccccc3nc12 [No. 44, 6-(2,6-dimethylphenyl)-2-((3-fluoro-4-(4-(1-methylethyl)-1-piperazinyl)phenyl)amino)-pyrimido[5′,4′:5,6]pyrimido[1,2-a]benzimidazol-5(6H)-one]
C[C@H](c1ccccc1)n1c(=O)c2cnc(Nc3ccc(N4CCN(C)CC4)cc3)nc2n2c3ccccc3nc12 [No. 68, 2-((4-(4-methyl-1-piperazinyl)phenyl)amino)-6-((1R)-1-phenylethyl)pyrimido[5′,4′:5,6]pyrimido[1,2-a]-benzimidazol-5(6H)-one]
Cc1cccc(C)c1-n1c(=O)c2cnc(Nc3ccc(N4CCCNCC4)cc3)nc2n2c3ccccc3nc12 [No. 75, 2-((4-(1,4-diazepan-1-yl)phenyl)amino)-6-(2,6-dimethylphenyl)pyrimido[5′,4′:5,6]pyrimido[1,2-a]-benzimidazol-5(6H)-one]
Cc1cccc(C)c1-n1c(=O)c2cnc(Nc3ccc(N4CCN(CCCN(C)C)CC4)cc3)nc2n2c3ccccc3nc12 [No. 49, 2-((4-(4-(3-(dimethylamino)propyl)-1-piperazinyl)-phenyl)amino)-6-(2,6-dimethylphenyl)-pyrimido[5′,4′:5,6]pyrimido[1,2-a]benzimidazol-5(6H)-one]
Cc1cccc(C)c1-n1c(=O)c2cnc(Nc3ccc(OC[C@@H]4CCCN4C)cc3)nc2n2c3ccccc3nc12 [No. 28, 6-(2,6-dimethylphenyl)-2-((4-((((2S)-1-methyl-2-pyrrolidinyl)methyl)oxy)phenyl)amino)-pyrimido[5′,4′:5,6]pyrimido[1,2-a]benzimidazol-5(6H)-one]
Cc1cccc(C)c1-n1c(=O)c2cnc(Nc3ccc(OCCCN4CCN(C)CC4)c(Cl)c3)nc2n2c3ccccc3nc12 [No. 73, 2-((3-chloro-4-((3-(4-methyl-1-piperazinyl)propyl)-oxy)phenyl)amino)-6-(2,6-dimethylphenyl)-pyrimido[5′,4′:5,6]pyrimido[1,2-a]benzimidazol-5(6H)-one]
CCN(CC)CCCOc1ccc(Nc2ncc3c(=O)n(-c4c(C)cccc4C)c4nc5ccccc5n4c3n2)cc1F [No. 6, 2-((4-((3-(diethylamino)propyl)oxy)-3-fluorophenyl)-amino)-6-(2,6-dimethylphenyl)pyrimido[5′,4′:5,6]-pyrimido[1,2-a]benzimidazol-5(6H)-one]
Cc1cccc(C)c1-n1c(=O)c2cnc(Nc3ccc(OCCN(C)C)cc3)nc2n2c3ccccc3nc12 [No. 8, 2-((4-((2-(dimethylamino)ethyl)oxy)phenyl)amino)-6-(2,6-dimethylphenyl)pyrimido[5′,4′:5,6]pyrimido[1,2-a]benzimidazol-5(6H)-one]
CN1CCN(c2ccc(Nc3ncc4c(=O)n(-c5c(F)c(F)c(F)c(F)c5F)c5nc6ccccc6n5c4n3)cc2)CC1 [No. 89, 2-((4-(4-methyl-1-piperazinyl)phenyl)amino)-6-(pentafluorophenyl)pyrimido[5′,4′:5,6]pyrimido[1,2-a]benzimidazol-5(6H)-one]
Cc1cccc(C)c1-n1c(=O)c2cnc(Nc3ccc(N4CCN(C(=O)OC(C)(C)C)CC4)cc3)nc2n2c3ccccc3nc12 [No. 3, 1,1-dimethylethyl 4-(4-((6-(2,6-dimethylphenyl)-5-oxo-5,6-dihydropyrimido[5′,4′:5,6]pyrimido[1,2-a]-benzimidazol-2-yl)amino)phenyl)-1-piperazinecarboxylate]
COc1cc(Nc2ncc3c(=O)n(-c4c(C)cccc4C)c4nc5ccccc5n4c3n2)cc(OC)c1OC [No. 18, 6-(2,6-dimethylphenyl)-2-((3,4,5-tris(methyloxy)-phenyl)amino)pyrimido[5′,4′:5,6]pyrimido[1,2-a]-benzimidazol-5(6H)-one]
CNCCOc1ccc(Nc2ncc3c(=O)n(-c4c(C)cccc4C)c4nc5ccccc5n4c3n2)cc1 [No. 33, 6-(2,6-dimethylphenyl)-2-((4-((2-(methylamino)-ethyl)oxy)phenyl)amino)pyrimido[5′,4′:5,6]-pyrimido[1,2-a]benzimidazol-5(6H)-one]
COc1cc(Nc2ncc3c(=O)n(-c4c(C)cccc4C)c4nc5ccccc5n4c3n2)ccc1OCCCN1CCN(C(C)C)CC1 [No. 63, 6-(2,6-dimethylphenyl)-2-((4-((3-(4-(1-methylethyl)-1-piperazinyl)propyl)oxy)-3-(methyloxy)phenyl)-amino)pyrimido[5′,4′:5,6]pyrimido[1,2-a]-benzimidazol-5(6H)-one]

Reference: patent publication US20050070554A1, “Substituted heterocyclic compounds and methods of use” (Amgen Inc., priority 2003, published 2005)
